Measured values as given in patent publication US11452702B2, “Compositions comprising amino acids for use in the treatment of mitochondrial dysfunction-related diseases” (PROFESSIONAL DIETETICS INTERNATIONAL S.R.L., priority 2017, dated 2022).

Test system: HL-1 cardiomyocytes
Experiment: Oxygen consumption (Clark-type oxygen electrode) in HL-1 cardiomyocytes
Type: cell-based, Mus musculus
Conditions: HL-1 cells, 48 hr treatment, normalized to protein content; FIG. 5
Method: Oxygen consumption in HL-1 cardiomyocytes treated with amino acid based compositions or DETA-NO for 48 hr. ****p<0.001 vs. untreated cell; ####p<0.001 vs. BCAAem and B2.
An amount of 1 ml of HL-1 cardiomyocytes treated with the compositions shown in Table 1 was re-suspended in Hank's balanced salt solution (Sigma) and spun down to pellet cells. A number of HL-1 cells was also supplemented with a nitic oxide (NO) donor, specifically with diethylenetriamine-NO also called DETA-NO (Sigma-Aldrich, Milan, Italy), as positive control.
Then, cells were re-suspended in a respiration buffer (0.3 M mannitol, 10 mM KCl, 5 mM MgCl2, 10 mM K2PO4, pH 7.4) at a density of 3.0×10^6/ml.
Samples were analyzed at 37° C. in a gas-tight vessel equipped with a Clark-type oxygen electrode (Rank Brothers Ltd.) connected to a chart recorder.
The oxygen electrode was calibrated assuming the concentration of oxygen in the incubation medium as 200 μmol/l at 37° C.
Oxygen consumption was assessed with continuous mixing for about ten minutes. The slope of the trace recorder was then used to calculate oxygen consumption. Oxygen content may vary depending on the amount of cells. Thus, protein content, which directly correlates with cell content, has been used to normalize the oxygen consumption in cell samples. Protein content was determined by using the bicinchoninic acid protein (BCA) assay.

SMILES: NCCN(CCN)/[N+]([O-])=N/O [DETA-NO, diethylenetriamine-NO]
- oxygen consumption: rise
